Laboratory results as given in patent US11098040B2, “Compounds and methods of use” (Ferro Therapeutics, Inc., priority 2018, dated 2021).

Assays:
KP4 = experiment: Cell viability assay (CellTiter Glo), pancreatic ductal adenocarcinoma KP4; assay type: cell-based, human; settings: Homo sapiens, KP-4, 96 h, pancreatic cancer cell line KP4, 96 hours, CellTiter Glo; read-out: IC50 μM KP4
Protocol: (§1) Cell viability assay was performed to assess the potency of the compounds in human cancer cell lines KP4 (pancreatic ductal adenocarcinoma), MiaPaCa-2 (pancreatic carcinoma), AsPC-1 (pancreatic adenocarcinoma, ascites), 143B (osteosarcoma), and SJSA-1 (osteosarcoma). Selected compounds were also assayed in a human breast epithelial cell line MCF-10A, a nontumorigenic cell line as a control to assess differential activity. Cells at a density of 500-5,000 cells/well were seeded in 96-well plates and incubated at 37° C. overnight. A series of 9 different concentrations of compound stocks (500×) were created by 3-fold serial dilution in DMSO. These compounds were further diluted in culture media and then added to cells so that the final DMSO concentration was equal to 0.25% or less. After 96 hours of incubation, 50 μL of CellTiter Glo reagent (Promega) was added to each well and luminescence was measured after 10 minutes using EnVision (PerkinElmer). Compounds titrated from top concentration of up to 30 μM. The select compounds were tested initially from 30 μM as the top concentration in duplicates (range of 4.6 nM-30 μM). […] Luminescence from cells treated with DMSO alone was set as Max and % of inhibition was calculated as follows: Inhibition %=(Max-Sample value)/Max*100. Data was analyzed using XL-fit software (ID Business Solutions Ltd.). IC50, relative IC50, or % of top inhibition was calculated.
as §1, with “in” for “in human”, “line” for “lines”, “adenocarcinoma).” for “adenocarcinoma), MiaPaCa-2 (pancreatic carcinoma), AsPC-1 (pancreatic adenocarcinoma, ascites), 143B (osteosarcoma), and SJSA-1 (osteosarcoma). Selected compounds were also assayed in a human breast epithelial cell line MCF-10A, a nontumorigenic cell line as a control to assess differential activity.”, “1,000-10,000” for “500-5,000”, “All” for “Compounds titrated from top concentration of up to 30 μM. The select”
(§2) The results of the assay on stability in blood and IC50 values for pancreatic cancer cell line KP4 are given below in Table 24.

[1] = Whole blood stability, mouse; assay type: in vitro ADME
Description: as §2

[2] = Whole blood stability, human; assay type: in vitro ADME
Description: as §2

| SMILES | IC50 (KP4) | Whole Blood Stability % Remaining at 37° C. Mouse ([1]; 0 min) | Whole Blood Stability % Remaining at 37° C. Mouse ([1]; 30 min) | Whole Blood Stability % Remaining at 37° C. Mouse ([1]; 60 min) | Whole Blood Stability % Remaining at 37° C. Human ([2]; 0 min) | Whole Blood Stability % Remaining at 37° C. Human ([2]; 30 min) | Whole Blood Stability % Remaining at 37° C. Human ([2]; 60 min) |
| --- | --- | --- | --- | --- | --- | --- | --- |
| COC(=O)[C@H]1Cc2c([nH]c3ccccc23)[C@H](c2ccc(C(=O)NCCN)cc2)N1C(=O)CCl [Compound 15] | 0.1 to 0.5 µM | 100.0% | 83.0% | 50.2% | 100.0% | 72.7% | 66.8% |
| COC(=O)[C@H]1Cc2c([nH]c3ccccc23)[C@H](c2ccc(C(=O)NCCNC(=O)OC(C)(C)C)cc2)N1C(=O)CCl [Compound 16] | < 0.01 µM | 100.0% | 84.1% | 63.3% | 100.0% | 54.3% | 36.9% |
| CC(C)(C)OC(=O)c1ccc([C@H]2c3[nH]c4ccccc4c3C[C@H](C(=O)OC(C)(C)C)N2C(=O)CCl)cc1 [Compound 19] | < 0.01 µM | 100.0% | 44.5% | 21.2% | 100.0% | 44.4% | 35.6% |
| CC(C)OC(=O)[C@H]1Cc2c([nH]c3ccccc23)[C@H](c2ccc(C(=O)OC(C)(C)C)cc2)N1C(=O)CCl [Compound 20] | < 0.01 µM | 100.0% | 39.9% | 19.1% | 100.0% | 50.7% | 41.6% |
| CN(C)C(=O)[C@H]1Cc2c([nH]c3ccccc23)[C@H](c2ccc(C(=O)OC(C)(C)C)cc2)N1C(=O)CCl [Compound 21] | 0.01 to 0.1 µM | 100.0% | 14.0% | 3.2% | 100.0% | 49.7% | 24.3% |

Further lines, results first:

| IC50 (KP4) | Whole Blood Stability % Remaining at 37° C. Mouse ([1]; 0 min) | Whole Blood Stability % Remaining at 37° C. Mouse ([1]; 30 min) | Whole Blood Stability % Remaining at 37° C. Mouse ([1]; 60 min) | Whole Blood Stability % Remaining at 37° C. Human ([2]; 0 min) | Whole Blood Stability % Remaining at 37° C. Human ([2]; 30 min) | Whole Blood Stability % Remaining at 37° C. Human ([2]; 60 min) | SMILES |
| --- | --- | --- | --- | --- | --- | --- | --- |
| < 0.01 µM | 100.0% | 47.4% | 27.6% | 100.0% | 58.8% | 24.9% | CNS(=O)(=O)c1ccc([C@H]2c3[nH]c4ccccc4c3C[C@H](C(=O)OC)N2C(=O)CCl)cc1 [Compound 22] |
| < 0.01 µM | 100.0% | 55.5% | 34.4% | 100.0% | 48.9% | 30.8% | COC(=O)[C@H]1Cc2c([nH]c3ccccc23)[C@H](c2ccc(S(=O)(=O)N(C)C)cc2)N1C(=O)CCl [Compound 23] |
| > 1 µM | 100.0% | 83.8% | 78.6% | 100.0% | 83.2% | 72.7% | COC(=O)[C@H]1Cc2c([nH]c3ccccc23)[C@@H](c2ccc(S(=O)(=O)N(C)C)cc2)N1C(=O)CCl [Compound 23a] |
